Read-outs that look alike come from different tables or passages of the source.
How the values were obtained:
Assay type in all cases: in vivo
[1] = tested on: Root-knot nematode, Meloidogyne incognita; conditions: potted tomato, scored 4 weeks after inoculation
From the text: Soil Nematicide Assay Targeting Root-knot Nematode, Meloidogyne incognita on Potted Tomato
The test compound is solubilized in acetone and diluted with water to the required test concentration. Silty loam soil in a 3 inch pot with a 3-week-old tomato transplant is drenched with the test solution. Four thousand root-knot nematode Meloidogyne incognita J2 larvae are dispensed in a aqueous suspension onto the soil. The pots are kept in the greenhouse and 4 weeks following inoculation of the pots, plant roots are washed free of soil and scored for the degree of root galling using the root-knot galling index identified below.

C. elegans = experiment: Evaluation of test compounds against C. elegans; design: key: 9: complete kill in 4 hours; 8: complete kill in 24 hours; 7: markedly reduced motility in approximately 95% of worms in 24 hours; 0: normal motility, same as controls; conditions: 300 ppm; observed at 4 and 24 hours post-immersion
Description: Evaluation of Test Compounds Against C. elegans Cultures of C. elegans (Bristol strain from J. Lewis) are maintained on E. coli lawns on NG Agar Plates at […]. New cultures are established weekly. Nematodes for testing are washed from cultures using Na buffer. Compounds are dissolved in 80% acetone. The test material is micropipetted (25 μl) into a single well of a 96-well sterile tissue culture plate and the solvent allowed to evaporate. A freshly prepared volume (50 μl) of C. elegans in Na buffer is micropipetted into each treated well and several control wells per plate. Plates are incubated at 20° C. Observations for efficacy are made under a dissecting microscope at 4 and 24 hours post-immersion. Immediately prior to reading the plate, it is gently tapped to stimulate the movement of the worms. Activity is judged subjectively, but semi-quantitatively, based on the drug effects on motility of the adults and larvae.

[2] = tested on: Aphis gossypii, cotton aphid; experiment: Cotton aphid (CA) cotyledon dip test; conditions: 300 ppm; mortality counts after 5 days
From the text: (§1) Subsequent dilutions are made with water as needed.
Aphis gossypii, Cotton Aphid (CA)
Cotton plants at the cotyledon stage are selected and cut back to one plant per pot. A heavily infested leaf is taken from the main colony and placed on top of each cotyledon. The aphids are allowed to transfer to the host plant overnight. At the time of test treatment, the leaf used to transfer the aphids is removed and discarded. The cotyledons are dipped in the test solution and allowed to dry. After 5 days, mortality counts are made.

[3] = tested on: Spodoptera eridania, 2nd instar larvae, southern armyworm; experiment: Southern armyworm (SAW) 2nd instar larvae leaf dip test; conditions: 300 ppm; observations at 5 days
From the text: as §1
Spodoptera eridania, 2nd Instar Larvae, Southern Armyworm (SAW)
A Sieva lima bean leaf expanded to 7-8 cm in length is dipped in the test solution with agitation for 3 seconds and allowed to dry in a hood. The leaf is then placed in a 100×10 mm petri dish containing a damp filter paper on the bottom and ten 2nd instar caterpillars. At 5 days, observations are made of mortality, reduced feeding, or any interference with normal molting.

[4] = tested on: Spodoptera eridania, eggs-southern armyworm; experiment: Southern armyworm eggs (SAW-Eggs) treated diet test; conditions: 3000 ppm; mortality counts after 7 days
Description: as §1
(§2) Spodoptera eridania, Eggs-southern Armyworm and Diabrotica undecimpunctata howardi, Eggs-southern Corn Rootworm (SAW-Eggs) and (SCR-Eggs)
(§3) Wells containing artificial diet are treated with the test solutions and dried. The appropriate insect eggs are then placed in the wells. The wells are covered with vented, adhesive, clear plastic covers. After 7 days, mortality counts are made.

[5] = tested on: Diabrotica undecimpunctata howardi, eggs-southern corn rootworm; experiment: Southern corn rootworm eggs (SCR-Eggs) treated diet test; conditions: 1000 ppm; mortality counts after 7 days
Description: as §1, §2, §3

[6] = tested on: Tetranychus urticae (OP-resistant strain), 2-spotted spider mite; experiment: 2-spotted spider mite (TSM) plant dip test; conditions: 300 ppm; mortality counts after 2 days
Description: as §1
Tetranychus urticae (OP-resistant Strain), 2-spotted Spider Mite (TSM)
Sieva lima bean plants with primary leaves expanded to 7-8 cm are selected and cut back to one plant per pot. A small piece is cut from an infested leaf taken from the main colony and placed on each leaf of the test plants. This is done about 2 hours before treatment to allow the mites to move over to the test plant to lay eggs. The size of the cut, infested leaf is varied to obtain about 100 mites per leaf. At the time of test treatment, the piece of leaf used to transfer the mites is removed and discarded. The newly-infested plants are dipped in the test solution for 3 seconds with agitation and set in the hood to dry. After 2 days, one leaf is removed and mortality counts are made.

[7] = tested on: Diabrotica virgifera virgifera Leconte, 2nd instar western corn rootworm; experiment: Western corn rootworm (WCR) soil jar test; conditions: 50 ppm; mortality counts after 5 days
Description: as §1
Diabrotica virgifera virgifera Leconte, 2nd Instar Western Corn Rootworm (WCR)
One cc of fine talc is placed in a 30 mL wide-mouth screw-top glass jar. One mL of the appropriate acetone test solution is pipetted onto the talc so as to provide 1.25 mg of active ingredient per jar. The jars are set under a gentle air flow until the acetone is evaporated. The dried talc is loosened, 1 cc of millet seed is added to serve as food for the insects and 25 mL of moist soil is added to each jar. The jar is capped and the contents thoroughly mixed mechanically. Following this, ten 2nd instar rootworms are added to each jar and the jars are loosely capped to allow air exchange for the larvae. The treatments are held for 5 days when mortality counts are made. Missing larvae are presumed dead, since they decompose rapidly and cannot be found. The concentrations of active ingredient used in this test correspond approximately to 50 kg/ha.

[8] = tested on: Lucilia serricata first instar blowfly larvae; experiment: Ectoparasiticide evaluation in Lucilia serricata; conditions: rate 100 ppm; for mortality at 100 ppm: Lucilia
Description: Ectoparasiticide Evaluation of Test Compounds in Lucilia serricata
The test compound is dissolved in acetone to a concentration of 100 ppm. 200 μL is added to three 12 mm filter paper disks in 128 well assay trays and allowed to dry. Approximately 20 first instar blowfly larvae and 200 μL bovine serum are added to the disks. Wells are covered with plastic lids and incubated at about 27° C. Mortality is determined at 24 and 48 hours.

[9] = 24 hr, read-out: Percent Mortality 24 hr
[10] = 48 hr, read-out: Percent Mortality 48 hr

| SMILES | Galling Index ([1]; rate 10 ppm soil drench) | Galling Index ([1]; rate 25 ppm soil drench) | Galling Index ([1]; rate 50 ppm soil drench) | C. elegans activity rating (motility of adults and larvae) (C. elegans) | CA rating [2] | SAW rating [3] | SAW Eggs rating [4] | SCR Eggs rating [5] | TSM rating [6] | WCR rating [7] | mortality at 100 ppm [8, 9] [%] | mortality at 100 ppm [8, 10] [%] | Percent Mortality 24 hr ([8]; 24 hr) [%] | Percent Mortality 48 hr ([8]; 48 hr) [%] |
| --- | --- | --- | --- | --- | --- | --- | --- | --- | --- | --- | --- | --- | --- | --- |
| FC(F)=C(F)CCSc1nc2ncccc2s1 [Example 1, 2-[(4,4,3-Trifluoro-3-butenyl)thio]thiazolo[4,5-b]pyridine] | 0 (0) | 0^1 (0) | 0^1 (0) | 7 | 0 | 0 | 8 | 9 | 0 | 0 | 100 | 100 | – | – |
| C=CCSc1nc2ncccc2s1 [Example 2] | – | – | – | 0 | 0 | 0 | 0 | 0 | 0 | 1 | – | – | 0 | 0 |
| COC(=O)CSc1nc2ncccc2s1 [Example 4] | – | – | – | 9 | 0 | 0 | 0 | 0 | 0 | 0 | – | – | – | – |
| CCOC(=O)CSc1nc2ncccc2s1 [Example 5] | – | – | – | 9 | 0 | 0 | – | 0 | 0 | 0 | – | – | – | – |
| CCOC(=O)C(C)Sc1nc2ncccc2s1 (centres unmarked) [Example 6] | – | – | – | 9 | 0 | 0 | 9 | 0 | 0 | 0 | – | – | 0 | 0 |
| FC(F)(Br)Sc1nc2ncccc2s1 [Example 7, 2-[(Bromodifluoromethyl)thio]thiazolo[4,5-b]pyridine] | – | – | – | – | 0 | 0 | 9 | 9 | 5 | 9 | 80 | 100 | – | – |
| FC(F)Sc1nc2ncccc2s1 [Example 8, 2-[(Difluoromethyl)thio]thiazolo[4,5-b]pyridine] | – | – | – | – | 3 | 0 | 9 | 9 | 8 | 9 | 0 | 0 | – | – |

Source: patent publication US6448262B1, “Pesticidal and parasiticidal use of 2-(substituted thio) thiazolo-[4,5-b]pyridine compounds” (American Cyanamid Company, priority 1998, dated 2002)
